Legend:
[1] = tested on: secretion of bile; test: Activity on the secretion of bile, intraduodenal administration; type: in vivo, Male Wister rats; conditions: 5 hours
Description: A. Intraduodenal administration
Male Wister rats weighing 200 to 250 g were used, ten rats in each group. Each rat was fasted for 6 to 8 hours, and was thereafter fastened as laid on its back to a fixed table under ethereal anesthesia. The abdomen was cut open along the midline. A polyethylene tube was inserted into and attached to the common bile duct. The rat was then allowed to stand for a period of time (1 hour) to assure stabilized flow of bile. The amount of bile flowing out for the following period of 30 minutes was taken as 100 to serve as a control amount for the subsequent flow of bile.
Next, the drug to be tested was intraduodenally administered to the rat, and the amount of bile flowing out from the polyethylene tube dropwise was measured over a period of 5 hours. The amount was measured for every 30-minute period of the first 2 hours after the administration of the drug and then for every one-hour period. Sodium dehydrocholate, bile acid preparation serving as a known cholagogue, was used as a control drug.
The dose was 200 mg/kg (weight of rat) for bornyl glucoside, or 100 mg (drug)/kg (weight of rat) for other borneols and sodium dehydrocholate. The drugs were used as suspended in 4% aqueous solution of gum arabic. Experimental results

[2] = naturally occurring, used in oriental medicine as "Ryuno"; cited from earlier work
[3] = tested on: secretion of bile; test: Activity on the secretion of bile, oral administration; type: in vivo, rats; conditions: 5 hours
Description: B. Oral Administration As in the case of intraduodenal administration, the drug to be tested was orally administered to rats each having a polyethylene tube attached to the common bile duct, and the amount of bile flowing out was observed over a period of 5 hours.

[4] = tested on: solids weight of bile; test: Variations in the weight of solids in discharged bile; type: in vivo, rats; conditions: intraduodenal, 100 mg/kg, 5 hours, pre-administration 30 minutes = 100
Description: A. Variations in the weight of solids in discharged bile
The bile portions obtained from the bile secretion experiment (1)-A by intraduodenal administration were collected respectively for the observation periods. A quantity of each bile portion was freeze-dried, and the solids weight was measured to determine the variations in the solids weight of bile over the 5-hour period. The solids weight of bile obtained during the 30-minute period before the administration of the test drug, e.g. (+)-borneol, was calculated as 100.

[5] = tested on: bile acid contents of bile; test: Variations in bile acid contents of bile (high-speed liquid chromatography); type: in vivo, rats; conditions: intraduodenal, 100 mg/kg, first one-hour period, pre-administration 30 minutes = 100
Text: C. Variations in bile acid contents of bile
Each portion of bile obtained during the first one-hour period of measurement in the foregoing bile secretion experiment (1)-A by intraduodenal administration was partly collected, then diluted 40-fold with freshly distilled methanol and thereafter filtered with use of a 0.45-micron membrane filter (product of Toyo Roshi). The filtrate was subjected to high-speed liquid chromatography according to the method of Okuyama S. et al., Chemistry Letters, p 1443 (1979). The bile acid contents of the bile flowing out during each measurement period were determined with reference to calibration curves prepared in advance for cholic acid, ursodeoxycholic acid, chenodeoxycholic acid and deoxycholic acid, and also for glycine conjugates and taurine conjugates of these acids. The total bile acid content was determined from the results. The bile acid contents and the total bile acid content of the bile flowing out during the period of 30 minutes before the administration of the test drug were taken as 100.

[6] = tested on: cholesterol content of bile; test: Variations in the cholesterol content of bile (Cholesterol CII-Test Wako); type: in vivo, rats; conditions: intraduodenal, 100 mg/kg, first one-hour period, pre-administration 30 minutes = 100
Description: (§1) B. Variations in the phospholipid and cholesterol contents of bile
(§2) Portions of the bile obtained during the first one-hour period of measurement in the bile secretion experiment (1)-A by intraduodenal administration were tested for phospholipid using Phospholipid B-Test Wako (enzyme method, Wako Pure Chemical Industries Ltd.) and for cholesterol using Cholesterol CII-Test Wako measuring kit(COD-p-chlorophenol color development method, Wako Pure Chemical Industries Ltd.). For the quantitative determination of phospholipid and cholesterol, a blank test was conducted, and a calibration curve prepared in advanced was used. The phospholipid and cholesterol contents of the bile flowing out during the period of 30 minutes before the administration of the test drug were taken as 100.

[7] = Acute toxicity test; design: species or system male dd-Y mice; conditions: mouse, in vivo; oral, mice, 7 days, Litchfield-Wilcoxon method, 95% reliability limit
Description: The drug to be tested was orally given to male dd-Y mice weighing about 20 g, ten mice in each group. The mice were thereafter observed for 7 days to determine the LD50 from the number of resulting deaths. During the 7-day observation period, the animals were allowed free access to diets and water. The LD50 was determined according to the Litchfield-Wilcoxon method.

[8] = tested on: phospholipid content of bile; test: Variations in the phospholipid content of bile (Phospholipid B-Test Wako); type: in vivo, rats; conditions: intraduodenal, 100 mg/kg, first one-hour period, pre-administration 30 minutes = 100
Description: as §1, §2

SMILES: CC1(C)[C@H]2CC[C@]1(C)[C@H](O)C2 [(-)-borneol]
- cholagogic effect (amount of bile flowing out) ([1]; 100 mg/kg): also had a cholagogic effect

SMILES: CC(=O)O[C@@H]1C[C@H]2CC[C@]1(C)C2(C)C [isobornyl acetate]
- cholagogic effect (amount of bile flowing out) ([1]; 100 mg/kg): also had a cholagogic effect

SMILES: CC1(C)C2CCC1(C)C(OC1O[C@H](CO)[C@@H](O)[C@H](O)[C@H]1O)C2 (some centres unmarked) [bornyl glucoside]
- cholagogic effect (amount of bile flowing out) ([1]; 200 mg/kg (bornyl glucoside)): also had a cholagogic effect

SMILES: CC1(C)[C@@H]2CC[C@@]1(C)[C@H](O)C2 (relative stereo) [isoborneol]
- cholagogic effect (amount of bile flowing out) ([1]; 100 mg/kg): also had a cholagogic effect

SMILES: CC1(C)[C@@H]2CC[C@@]1(C)[C@@H](O)C2 [(+)-borneol]
- empirically known pharmacological activities [2]: analgesic, anti-inflammatory, sedative and anti-palpitation effects and central depressant activity
- cholagogic effect (amount of bile flowing out) [3]: more sustained greater cholagogic effect than the control drug
- variations in the solids weight of bile [4]: sustained effect to increase the amount of biliary constituents
- bile acid contents of bile [5]: secretion of remarkably increased amounts of chenodeoxylic acid and like bile acids
- total bile acid content of bile [5]: remarkable increase in the total bile acid content
- cholesterol content of bile [6]: approximately at the same level as those of the normal bile
- LD50 at 168 h [7]: ≥ 10000 mg/kg
- phospholipid content of bile [8]: approximately at the same level as those of the normal bile
- cholagogic effect (amount of bile flowing out) ([1]; 100 mg/kg): sustained great cholagogic effect over the entire observation period of 5 hours

SMILES: CC1(C)[C@@H]2CC[C@@]1(C)[C@@H](O)C2 (relative stereo) [(±)-borneol]
- cholagogic effect (amount of bile flowing out) ([1]; 100 mg/kg): also had a cholagogic effect

SMILES: C[C@H](CCC(=O)O)[C@H]1CC[C@H]2[C@@H]3C(=O)C[C@@H]4CC(=O)CC[C@]4(C)[C@H]3CC(=O)[C@]12C [sodium dehydrocholate, reference compound]
- bile acid contents of bile [5]: slight transient tendency to produce increased amounts of bile acids including deoxycholic acid only 30 minutes after the administration
- cholesterol content of bile [6]: tendency for the phospholipid and cholesterol contents of bile to increase
- LD50 at 168 h [7]: 2500 mg/kg
- phospholipid content of bile [8]: tendency for the phospholipid and cholesterol contents of bile to increase
- cholagogic effect (amount of bile flowing out) ([1]; 100 mg/kg): transient great cholagogic effect 30 minutes after the administration

SMILES: CC(=O)OC1CC2CCC1(C)C2(C)C (centres unmarked) [bornyl acetate]
- cholagogic effect (amount of bile flowing out) ([1]; 100 mg/kg): also had a cholagogic effect

Reference: US4931475A, “Cholagogue and/or gallstone solubilizer” (Hiya Pharmaceutical Co., Ltd., priority 1985, dated 1990)
